In article PMC9403976, “Elucidating the path to Plasmodium prolyl-tRNA synthetase inhibitors that overcome halofuginone resistance” (Nature Communications, 2022):
pKd: −log10 of the molar value. “And” between values parts separate entries of the source, which are not always exact repeats. Equal values may be shown once.

How the values were obtained:
[1] = system: P. falciparum Dd2-2D4 NCP26 selections S1-3; assay: ABS growth assay on bulk populations and clones from NCP26 resistance selections S1-3; format: cell-based, Plasmodium falciparum; settings: S3 - Clone B7
HsProRS = HsProRS (Homo sapiens, UniProt P07814); assay: TR-FRET ligand displacement assay with tracer MAT379 (CoraFluor-1-Halo and anti-His6 antibody formats); format: binding; design: made in house; host or cells: E. coli SoluBL-21; settings: for Kd: 250 nM MAT379; for TR-FRET dose-response, normalized signal (SI Fig 11): individual replicates; for TR-FRET dose-response, normalized signal (SI Fig 11) / normalized TR-FRET ligand displacement signal, dose-response replicates (SI Fig 6) / normalized TR-FRET signal (dose-response replicates): listed as NCP26 (3); for normalized TR-FRET signal (dose-response replicates): SI Fig 15
HsProRS, sequence (P07814 996-1512): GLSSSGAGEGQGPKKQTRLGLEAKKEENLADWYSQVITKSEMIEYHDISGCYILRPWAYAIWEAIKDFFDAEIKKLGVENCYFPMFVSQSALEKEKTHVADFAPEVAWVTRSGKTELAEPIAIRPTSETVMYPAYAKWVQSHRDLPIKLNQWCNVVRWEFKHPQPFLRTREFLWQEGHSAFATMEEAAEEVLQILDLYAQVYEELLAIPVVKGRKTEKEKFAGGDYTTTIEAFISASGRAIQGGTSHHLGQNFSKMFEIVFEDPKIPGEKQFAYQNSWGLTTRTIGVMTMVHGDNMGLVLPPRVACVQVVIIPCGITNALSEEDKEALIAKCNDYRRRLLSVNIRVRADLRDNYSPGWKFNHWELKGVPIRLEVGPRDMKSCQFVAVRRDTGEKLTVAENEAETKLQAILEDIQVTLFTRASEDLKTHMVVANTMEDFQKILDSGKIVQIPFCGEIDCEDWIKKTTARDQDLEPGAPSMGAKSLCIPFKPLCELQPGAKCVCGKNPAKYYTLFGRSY

O=C(NC1Cc2ccccc2C1)c1nccnc1NC(=O)N1CCCCC1 [NCP26]
parasite growth, dose-response point ([1]; Log[NCP26] (M) -7.107): 98 and 94 and 99
parasite growth, dose-response point ([1]; Log[NCP26] (M) -7.408): 105 and 98
fold increased affinity in the presence of proline (HsProRS; 100 μM proline vs no substrates): > 750 fold
Kd (HsProRS; HsProRS (KD [nM]) + ATP, 500 μM ATP): 678 nM
Kd (HsProRS; HsProRS (KD [nM]) −, absence of substrates): 271 nM
pKd (HsProRS; HsProRS - best Kd, SI Fig 16a, values on -log scale): 9.46
TR-FRET dose-response, normalized signal (SI Fig 11) (HsProRS; Log[inhibitor] (M) -5.000): 3.90E-02 and 5.46E-02 and 7.26E-02
normalized TR-FRET ligand displacement signal, dose-response replicates (SI Fig 6) (HsProRS; Log[inhibitor] (M) -5.000): -7.74E-03 and 7.74E-03
TR-FRET dose-response, normalized signal (SI Fig 11) (HsProRS; Log[inhibitor] (M) -5.301): 8.66E-02 (2×) and 6.05E-02
normalized TR-FRET ligand displacement signal, dose-response replicates (SI Fig 6) (HsProRS; Log[inhibitor] (M) -5.301): 1.56E-02 and 1.09E-02
TR-FRET dose-response, normalized signal (SI Fig 11) (HsProRS; Log[inhibitor] (M) -5.601): 1.54E-01 and 1.44E-01 and 1.56E-01
normalized TR-FRET ligand displacement signal, dose-response replicates (SI Fig 6) (HsProRS; Log[inhibitor] (M) -5.601): 1.19E-01 and 1.01E-01
normalized TR-FRET ligand displacement signal, dose-response replicates (SI Fig 6) (HsProRS; Log[inhibitor] (M) -5.902): 2.03E-01 and 2.10E-01
TR-FRET dose-response, normalized signal (SI Fig 11) (HsProRS; Log[inhibitor] (M) -5.904): 2.33E-01 and 2.21E-01 and 2.09E-01
normalized TR-FRET ligand displacement signal, dose-response replicates (SI Fig 6) (HsProRS; Log[inhibitor] (M) -6.203): 4.13E-01 and 3.59E-01
TR-FRET dose-response, normalized signal (SI Fig 11) (HsProRS; Log[inhibitor] (M) -6.208): 3.61E-01 and 2.97E-01 and 3.35E-01
TR-FRET dose-response, normalized signal (SI Fig 11) (HsProRS; Log[inhibitor] (M) -6.509): 4.65E-01 and 4.29E-01 and 4.89E-01
normalized TR-FRET ligand displacement signal, dose-response replicates (SI Fig 6) (HsProRS; Log[inhibitor] (M) -6.513): 6.17E-01 and 6.51E-01
TR-FRET dose-response, normalized signal (SI Fig 11) (HsProRS; Log[inhibitor] (M) -6.796): 6.56E-01 and 6.91E-01 and 6.47E-01
normalized TR-FRET ligand displacement signal, dose-response replicates (SI Fig 6) (HsProRS; Log[inhibitor] (M) -6.796): 7.87E-01 and 8.56E-01
TR-FRET dose-response, normalized signal (SI Fig 11) (HsProRS; Log[inhibitor] (M) -7.108): 8.29E-01 and 7.76E-01 and 7.86E-01
normalized TR-FRET ligand displacement signal, dose-response replicates (SI Fig 6) (HsProRS; Log[inhibitor] (M) -7.108): 8.95E-01 and 9.07E-01
normalized TR-FRET ligand displacement signal, dose-response replicates (SI Fig 6) (HsProRS; Log[inhibitor] (M) -7.405): 9.57E-01 and 8.55E-01
TR-FRET dose-response, normalized signal (SI Fig 11) (HsProRS; Log[inhibitor] (M) -7.409): 9.33E-01 and 8.84E-01 and 8.96E-01
TR-FRET dose-response, normalized signal (SI Fig 11) (HsProRS; Log[inhibitor] (M) -7.710): 1.01E+00 and 8.77E-01 and 8.78E-01
normalized TR-FRET ligand displacement signal, dose-response replicates (SI Fig 6) (HsProRS; Log[inhibitor] (M) -7.714): 1.05E+00 and 9.22E-01
TR-FRET dose-response, normalized signal (SI Fig 11) (HsProRS; Log[inhibitor] (M) -8.000): 9.74E-01 and 9.83E-01 and 9.34E-01
normalized TR-FRET ligand displacement signal, dose-response replicates (SI Fig 6) (HsProRS; Log[inhibitor] (M) -8.000): 1.02E+00 and 1.00E+00
normalized TR-FRET signal (Fig 2j) (HsProRS; Log[inhibitor] (M) -8.013): 3.80E-01 and 4.41E-01 and 3.90E-01
TR-FRET dose-response, normalized signal (SI Fig 11) (HsProRS; Log[inhibitor] (M) -8.301): 1.04E+00 and 9.70E-01 and 9.69E-01
normalized TR-FRET signal (Fig 2j) (HsProRS; Log[inhibitor] (M) -8.314): 5.85E-01 and 7.34E-01 and 6.18E-01
normalized TR-FRET ligand displacement signal, dose-response replicates (SI Fig 6) (HsProRS; Log[inhibitor] (M) -8.331): 1.04E+00 and 1.00E+00
normalized TR-FRET ligand displacement signal, dose-response replicates (SI Fig 6) (HsProRS; Log[inhibitor] (M) -8.574): 1.00E+00 and 9.98E-01
TR-FRET dose-response, normalized signal (SI Fig 11) (HsProRS; Log[inhibitor] (M) -8.602): 1.02E+00 and 9.93E-01 and 9.50E-01
normalized TR-FRET signal (Fig 2j) (HsProRS; Log[inhibitor] (M) -8.615): 7.72E-01 and 8.28E-01 and 8.16E-01
normalized TR-FRET signal (Fig 2j) (HsProRS; Log[inhibitor] (M) -8.916): 9.01E-01 and 9.63E-01 and 9.82E-01
TR-FRET dose-response, normalized signal (SI Fig 11) (HsProRS; Log[inhibitor] (M) -9.000): 9.79E-01 and 9.82E-01 and 1.02E+00
normalized TR-FRET signal (Fig 2j) (HsProRS; Log[inhibitor] (M) -9.217): 9.20E-01 and 1.06E+00
TR-FRET dose-response, normalized signal (SI Fig 11) (HsProRS; Log[inhibitor] (M) -9.301): 1.04E+00 and 1.00E+00 and 9.65E-01
normalized TR-FRET signal (dose-response replicates) (HsProRS; Log[inhibitor] (M) -4.99976): 2.27E-01 and 3.58E-01 and 2.56E-01
normalized TR-FRET signal (dose-response replicates) (HsProRS; Log[inhibitor] (M) -5.3009): 5.51E-01 and 1.03E-01 and 3.27E-01
normalized TR-FRET signal (dose-response replicates) (HsProRS; Log[inhibitor] (M) -5.60199): 6.05E-01 and 4.05E-01 and 4.39E-01
